Experimental data: US10253002B2, “Compounds and methods of treating infections” (Neoculi Pty Ltd., priority 2013, dated 2019)
In brackets after ≈: the same amount, converted by molar mass.

Tested on: MRSA
Assay: Broth microdilution MIC, Example 7 (NCL812 and analogues)
Type: cell-based, Staphylococcus aureus
Details: MIC testing, two MRSA strains
Summary of the method: (§1)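 Values are MICs in μg/ml from broth microdilution per CLSI, with growth scored against a drug-free well.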

Structure (SMILES)	activity against MRSA among analogues
C/C(=N\NC(=N)N/N=C(\C)c1ccc(Br)cc1)c1ccc(Br)cc1.Cl [NCL155]	greatest activity
Cl.N=C(NN=Cc1ccc(Cl)cc1N)NN=Cc1ccc(Cl)cc1N [NCL157, 2,2′-bis[(2-amino-4-chlorophenyl)methylene]carbonimidic Dihydrazide Hydrochloride]	greatest activity
CC/C(=N\NC(=N)N/N=C(\CC)c1ccc(Cl)cc1O)c1ccc(Cl)cc1O [NCL158]	greatest activity
CC(O)Nc1cc(Cl)ccc1C=NNC(=N)NN=Cc1ccc(Cl)cc1NC(C)O.Cl (centres unmarked) [NCL168]	greatest activity
N=C(NN=Cc1ccc(Cl)cc1N)NN=Cc1ccc(Cl)cc1N [NCL169]	greatest activity
CC(=NNC(=N)NN=C(C)c1ccc(Cl)cc1O)c1ccc(Cl)cc1O.Cl [NCL173]	greatest activity
Cl.N=C(NN=Cc1ccc(Cl)cc1O)NN=Cc1ccc(Cl)cc1O [NCL174]	greatest activity
Cl.N=C(NN=C(CO)c1ccc(Cl)cc1)NN=C(CO)c1ccc(Cl)cc1 [NCL177]	greatest activity
Nc1nc(N/N=C/c2ccc(Cl)cc2)cc(N/N=C/c2ccc(Cl)cc2)n1 [NCL179, 4,6-bis(2-((E)-4-chlorobenzylidene)hydrazinyl)pyrimidin-2-amine]	greatest activity
Cl.[H]/N=C(/N)NN=C(CNN)c1ccc(Cl)cc1 [NCL190]	greatest activity

Same assay, conditions: Staphylococcus aureus, MRSA, bioassay ranking, MRSA; read-out: MRSA

Structure (SMILES)	MIC
Cl.N=C(NN=Cc1ccc(Cl)cc1N)NN=Cc1ccc(Cl)cc1N [NCL157, 2,2′-bis[(2-amino-4-chlorophenyl)methylene]carbonimidic Dihydrazide Hydrochloride]	2 µg/mL
CC/C(=N\NC(=N)N/N=C(\CC)c1ccc(Cl)cc1O)c1ccc(Cl)cc1O [NCL158]	4 µg/mL (≈ 9.47 µM)
Nc1nc(N/N=C/c2ccc(Cl)cc2)cc(N/N=C/c2ccc(Cl)cc2)n1 [NCL179, 4,6-bis(2-((E)-4-chlorobenzylidene)hydrazinyl)pyrimidin-2-amine]	2 µg/mL (≈ 5 µM)

Same assay, conditions: bioassay ranking, MRSA

Structure (SMILES)	MRSA
C/C(=N\NC(=N)N/N=C(\C)c1ccc(Br)cc1)c1ccc(Br)cc1.Cl [NCL155]	8 µg/mL
CC(=NNC(=N)NN=C(C)c1ccc(Cl)cc1O)c1ccc(Cl)cc1O.Cl [NCL173]	16 µg/mL
Cl.N=C(NN=Cc1ccc(Cl)cc1O)NN=Cc1ccc(Cl)cc1O [NCL174]	32 µg/mL
Cl.N=C(NN=C(CO)c1ccc(Cl)cc1)NN=C(CO)c1ccc(Cl)cc1 [NCL177]	8 µg/mL
Cl.[H]/N=C(/N)NN=C(CNN)c1ccc(Cl)cc1 [NCL190]	24 µg/mL

Tested on: not listed separately
Assay: Bioassay ranking of the analogues tested
Details: M + R (MRSA and VRE combined)

Structure (SMILES)	M + R
C/C(=N\NC(=N)N/N=C(\C)c1ccc(Br)cc1)c1ccc(Br)cc1.Cl [NCL155]	10 µg/mL
Cl.N=C(NN=Cc1ccc(Cl)cc1N)NN=Cc1ccc(Cl)cc1N [NCL157, 2,2′-bis[(2-amino-4-chlorophenyl)methylene]carbonimidic Dihydrazide Hydrochloride]	2.25 µg/mL
CC/C(=N\NC(=N)N/N=C(\CC)c1ccc(Cl)cc1O)c1ccc(Cl)cc1O [NCL158]	4 µg/mL
CC(O)Nc1cc(Cl)ccc1C=NNC(=N)NN=Cc1ccc(Cl)cc1NC(C)O.Cl (centres unmarked) [NCL168]	40 µg/mL
N=C(NN=Cc1ccc(Cl)cc1N)NN=Cc1ccc(Cl)cc1N [NCL169]	40 µg/mL
CC(=NNC(=N)NN=C(C)c1ccc(Cl)cc1O)c1ccc(Cl)cc1O.Cl [NCL173]	17 µg/mL
Cl.N=C(NN=Cc1ccc(Cl)cc1O)NN=Cc1ccc(Cl)cc1O [NCL174]	25 µg/mL
Cl.N=C(NN=C(CO)c1ccc(Cl)cc1)NN=C(CO)c1ccc(Cl)cc1 [NCL177]	7 µg/mL
Nc1nc(N/N=C/c2ccc(Cl)cc2)cc(N/N=C/c2ccc(Cl)cc2)n1 [NCL179, 4,6-bis(2-((E)-4-chlorobenzylidene)hydrazinyl)pyrimidin-2-amine]	3 µg/mL
Cl.[H]/N=C(/N)NN=C(CNN)c1ccc(Cl)cc1 [NCL190]	28 µg/mL

Tested on: VRE
Assay: Broth microdilution MIC, Example 7 (NCL812 and analogues)
Type: cell-based, Enterococcus spp.
Details: Enterococcus, VRE, bioassay ranking, VRE; read-out: VRE
Summary of the method: as §1

Structure (SMILES)	MIC
Cl.N=C(NN=Cc1ccc(Cl)cc1N)NN=Cc1ccc(Cl)cc1N [NCL157, 2,2′-bis[(2-amino-4-chlorophenyl)methylene]carbonimidic Dihydrazide Hydrochloride]	2.5 µg/mL
CC/C(=N\NC(=N)N/N=C(\CC)c1ccc(Cl)cc1O)c1ccc(Cl)cc1O [NCL158]	4 µg/mL (≈ 9.47 µM)
Nc1nc(N/N=C/c2ccc(Cl)cc2)cc(N/N=C/c2ccc(Cl)cc2)n1 [NCL179, 4,6-bis(2-((E)-4-chlorobenzylidene)hydrazinyl)pyrimidin-2-amine]	4 µg/mL (≈ 9.99 µM)

Same assay, conditions: MIC testing, two VRE strains

Structure (SMILES)	activity against VRE among analogues
C/C(=N\NC(=N)N/N=C(\C)c1ccc(Br)cc1)c1ccc(Br)cc1.Cl [NCL155]	greatest activity
Cl.N=C(NN=Cc1ccc(Cl)cc1N)NN=Cc1ccc(Cl)cc1N [NCL157, 2,2′-bis[(2-amino-4-chlorophenyl)methylene]carbonimidic Dihydrazide Hydrochloride]	greatest activity
CC/C(=N\NC(=N)N/N=C(\CC)c1ccc(Cl)cc1O)c1ccc(Cl)cc1O [NCL158]	greatest activity
CC(O)Nc1cc(Cl)ccc1C=NNC(=N)NN=Cc1ccc(Cl)cc1NC(C)O.Cl (centres unmarked) [NCL168]	greatest activity
N=C(NN=Cc1ccc(Cl)cc1N)NN=Cc1ccc(Cl)cc1N [NCL169]	greatest activity
CC(=NNC(=N)NN=C(C)c1ccc(Cl)cc1O)c1ccc(Cl)cc1O.Cl [NCL173]	greatest activity
Cl.N=C(NN=Cc1ccc(Cl)cc1O)NN=Cc1ccc(Cl)cc1O [NCL174]	greatest activity
Cl.N=C(NN=C(CO)c1ccc(Cl)cc1)NN=C(CO)c1ccc(Cl)cc1 [NCL177]	greatest activity
Nc1nc(N/N=C/c2ccc(Cl)cc2)cc(N/N=C/c2ccc(Cl)cc2)n1 [NCL179, 4,6-bis(2-((E)-4-chlorobenzylidene)hydrazinyl)pyrimidin-2-amine]	greatest activity
Cl.[H]/N=C(/N)NN=C(CNN)c1ccc(Cl)cc1 [NCL190]	greatest activity

Same assay, conditions: bioassay ranking, VRE

Structure (SMILES)	VRE
C/C(=N\NC(=N)N/N=C(\C)c1ccc(Br)cc1)c1ccc(Br)cc1.Cl [NCL155]	12 µg/mL
N=C(NN=Cc1ccc(Cl)cc1N)NN=Cc1ccc(Cl)cc1N [NCL169]	32 µg/mL
CC(=NNC(=N)NN=C(C)c1ccc(Cl)cc1O)c1ccc(Cl)cc1O.Cl [NCL173]	18 µg/mL
Cl.N=C(NN=Cc1ccc(Cl)cc1O)NN=Cc1ccc(Cl)cc1O [NCL174]	18 µg/mL
Cl.N=C(NN=C(CO)c1ccc(Cl)cc1)NN=C(CO)c1ccc(Cl)cc1 [NCL177]	6 µg/mL
Cl.[H]/N=C(/N)NN=C(CNN)c1ccc(Cl)cc1 [NCL190]	32 µg/mL
